Test results reported in article PMC2788029 (Journal of molecular biology, 2009).
“Also recorded” adds a separate entry of the source. Read-outs that look alike come from different tables or passages of the source.

How the values were obtained:
T4 lysozyme L99A/M102Q [1] = target: T1, T4 lysozyme L99A/M102Q (Enterobacteria phage T4, UniProt P00720, C54T/C97A/L99A/M102Q); conditions: cited from earlier work
T4 lysozyme L99A/M102Q [2] = target: T1, T4 lysozyme L99A/M102Q; assay: biochemical; format: binding
T4 lysozyme L99A/M102Q [3] = target: T1, T4 lysozyme L99A/M102Q; format: binding
[4] = free energy of binding by ITC at 10°C, pH 6.8, prospective set

Structure (SMILES): Nc1ccccc1O [2-aminophenol]
- binding to L99A/M102Q (known) (T4 lysozyme L99A/M102Q [1]): non-binder; also recorded: does not bind detectably

Structure (SMILES): CCOC1CCC=CO1 (stereo not drawn) [2-ethoxy-3,4-dihydro-2h-pyran]
- binding free energy, estimated (T4 lysozyme L99A/M102Q [2]): -3.88 to -2.59 kcal/mol
- ΔGb,exp (binding class) (T4 lysozyme L99A/M102Q [2]): weak

Structure (SMILES): CCOc1ccccc1O [2-ethoxyphenol]
- ΔGb,exp (T4 lysozyme L99A/M102Q [3]): -4.02 ± 0.03 kcal/mol

Structure (SMILES): CCc1ccccc1O [2-ethylphenol]
- ΔGb,exp (T4 lysozyme L99A/M102Q [3]): -4.57 ± 0.11 kcal/mol

Structure (SMILES): Cc1ccccc1O [2-methylphenol]
- ΔGb,exp (T4 lysozyme L99A/M102Q [3]): -4.44 ± 0.11 kcal/mol

Structure (SMILES): O=[N+]([O-])c1cccs1 [2-nitrothiophene]
- ΔGb,exp (T4 lysozyme L99A/M102Q [3]; [4]): -4.85 ± 0.25 kcal/mol

Structure (SMILES): CCCc1ccccc1O [2-propylphenol]
- ΔGb,exp (T4 lysozyme L99A/M102Q [3]): -5.33 ± 0.05 kcal/mol

Structure (SMILES): c1cc2c([nH]1)CCCC2 [4,5,6,7-tetrahydroindole]
- ΔGb,exp (T4 lysozyme L99A/M102Q [3]; [4]): -4.61 ± 0.09 kcal/mol

Structure (SMILES): Clc1cn[nH]c1 [4-chloro-1h-pyrazole]
- binding free energy, estimated (T4 lysozyme L99A/M102Q [2]): -3.88 to -2.59 kcal/mol
- ΔGb,exp (binding class) (T4 lysozyme L99A/M102Q [2]): weak

Structure (SMILES): C=Cc1ccncc1 [4-vinylpyridine]
- binding to L99A/M102Q (known) (T4 lysozyme L99A/M102Q [1]; known ligands and non-binders): non-binder

Structure (SMILES): Cc1ccc(Cl)cc1O [5-chloro-2-methylphenol]
- ΔGb,exp (T4 lysozyme L99A/M102Q [3]): -5.04 ± 0.07 kcal/mol

Structure (SMILES): CC(=O)OCc1ccccc1 [benzyl acetate]
- ΔGb,exp (T4 lysozyme L99A/M102Q [3]; [4]): -4.48 ± 0.16 kcal/mol

Structure (SMILES): Oc1ccccc1O [catechol, reference compound]
- binding to L99A/M102Q (known) (T4 lysozyme L99A/M102Q [1]; known ligands and non-binders): is a ligand
- ΔGb,exp (T4 lysozyme L99A/M102Q [3]): -4.16 ± 0.03 kcal/mol

Structure (SMILES): O=Nc1ccccc1 [nitrosobenzene]
- binding free energy, estimated (T4 lysozyme L99A/M102Q [2]): -3.88 to -2.59 kcal/mol
- ΔGb,exp (binding class) (T4 lysozyme L99A/M102Q [2]): weak
- Kd (T4 lysozyme L99A/M102Q [2]; affinity estimated from concentration where significant Tm upshift was observed): ~1 mM

Structure (SMILES): Oc1ccccc1 [phenol]
- ΔGb,exp (T4 lysozyme L99A/M102Q [1]): -5.24 kcal/mol

Structure (SMILES): c1cc2sccc2s1 [thieno[3,2-b]thiophene]
- ΔGb,exp (T4 lysozyme L99A/M102Q [3]; [4]): -4.67 ± 0.17 kcal/mol
